The values that follow come from article PMC7074166, “Screening for Small Molecule Modulators of Trypanosoma brucei Hsp70 Chaperone Activity Based upon Alcyonarian Coral-Derived Natural Products” (Marine Drugs, 2020).

The subject of data set [1] is HeLa (human cervix adenocarcinoma) cells. The data set is described as follows: Resazurin-based cytotoxicity assay on a mammalian cell line. Conditions: 20 μM, Figure S2. How it is done: (§1) HeLa cells were grown and maintained in a culture medium comprised of Dulbecco’s Modified Eagle’s Medium (DMEM) with 5 mM L-glutamine (Lonza, Basel, Switzerland), supplemented with 10% (v/v) heat inactivated foetal bovine serum and antibiotics (penicillin/streptomycin/fungizone-PSF) in a humidified chamber at 37 °C with an atmosphere of 5% CO2. To carry out passaging of cells, cultures were treated with 1% trypsin (w/v) to lift cells, which were then washed in 1 × phosphate buffered saline (PBS) before being re-seeded into culture flasks. For assessment of the cytotoxic effects, the small molecules were added to HeLa cells at a fixed concentration of 20 μM. After an incubation period of 24 h, the number of cells surviving drug exposure were determined using a resazurin-based cytotoxicity assay. The resazurin-based cytotoxicity assay was conducted as previously mentioned. Results were expressed as % cell—the resorufin fluorescence in small molecule-treated wells relative to untreated controls. Assessment of each small molecule was conducted in duplicate, with error bars representing standard deviation (SD).

Data set [2] has as its system bloodstream form T. b. brucei parasites. The data set is described as follows: Resazurin-based anti-trypanosomal assay on bloodstream form T. b. brucei parasites. The class given is cell-based, Trypanosoma brucei brucei. The note with it: Trypanosoma brucei. The method, then:
Bloodstream form T. b. brucei Lister 927 variant 221 strain parasites were cultured in filter sterilized complete Iscoves Modified Dulbeccos Media (IMDM) based HM1-9 medium (IMDM base powder, […] sodium bicarbonate, 1 mM hypoxanthine, 1 mM sodium pyruvate, 0.16 mM thymidine, 0.05 mM bathocuprone sulphate acid, 10% (v/v) heat inactivated foetal bovine serum, 1.5 mM L-cysteine, 0.2 mM β-mercaptoethanol, pH 7.5) in a humidified chamber at 37 °C with an atmosphere of 5% CO2. Parasite growth was monitored using a Neubauer haemocytometer to count the cell number, after which cells were diluted, according to their density, in the described pre-warmed media.
All compounds of interest were resuspended to stocks of 30 mM in DMSO and stored at −80 °C prior to use in in vitro experiments. For assessment of anti-trypanosomal activity, compounds were added to in vitro cultures of bloodstream form T. b. brucei parasites (1 × 10^5 cells/mL) in 96-well plates at a fixed concentration of 20 μM. After an incubation period of 48 h, the number of parasites surviving drug exposure were determined using a resazurin-based cytotoxicity assay. Resazurin is an oxidation–reduction sensitive dye that is reduced by living cells to resorufin. Resorufin is a fluorophore (Excitation560/Emission590) and thus was quantified in a multi-well fluorescence plate reader. Results are expressed as % parasite viability—the resorufin fluorescence in small molecule-treated wells relative to untreated controls. Assessment of each small molecule was conducted in duplicate, with error bars representing standard deviation (SD). […] The compounds were added to in vitro cultures of bloodstream form T. b. brucei parasites (1 × 10^5 cells/mL) in 96-well plates in a 3-fold dilution series with 100 μM as the highest concentration. After an incubation period of 48 h, the number of parasites surviving drug exposure were determined as previously mentioned. The % parasite viability was determined as previously mentioned. The IC50 (the concentration of compound required to decrease cell viability of T. b. brucei parasites by 50% compared to those grown in the absence of the compound) values for each of the compounds were determined from a dose–response curve by non-linear regression generated using GraphPad Prism® (v. 7.0; San Diego, CA, USA) software. For comparative purposes, pentamidine at a fixed concentration of 1 μM was employed as a drug standard.

Data set [3] deals with T1, TbHsp70 (Trypanosoma brucei brucei, UniProt P11145).
T1 construct: His-tag; made in house; host or cells: Escherichia coli
The experiment in a line: Basal ATPase activity assay, TbHsp70. The class given is biochemical. The method, then: (§2) The determination of the ATPase activity of the Hsp70 proteins was performed using the high throughput colorimetric ATPase assay kit (Innova Biosciences, Cambridge, UK). This method enables the quantification of the inorganic phosphate (Pi) released from ATP hydrolysis by an enzyme. Briefly, the molecular chaperones were prepared in ATPase assay buffer (100 mM Tris-HCl, 7.5, 2 mM MgCl2, 50 mM KCl, 0.5 mM DTT) and incubated with ATP (0–2 mM) for 1 h at 37 °C. […] The samples containing Pi hydrolysed from ATP were incubated with the PiColorLock™ solution, which is a malachite green dye solution that in the presence of Pi changes absorbance due to generation of molybdate-phosphate complexes. The absorbance was measured at 595 nm using a Powerwave 96-well plate reader (BioTek Instruments, Inc., Winooski, VT, USA), and absorbance values were converted to phosphate concentrations using a standard curve of absorbance vs. phosphate concentration based on a set of Pi standards provided by the supplier assayed along with the samples. All samples were corrected for spontaneous breakdown of ATP observed in a control experiment in the absence of protein. The trypanosomal and human Hsp70s were used at 0.8 μM, and the J-proteins were used at 0.4 μM. An initial screen of the modulatory effects of the compounds on the ATPase activity of the Hsp70s was conducted using 300 μM of the compounds. […]

Data set [4] deals with TbHsp70.4. The data set is described as follows: Basal ATPase activity assay, TbHsp70.4. Conditions: TbHsp70.4, 1 μM. The class given is biochemical, Trypanosoma brucei. The method, then:
as §2

For data set [5], the target named is T2, TbHsp70 / Tbj2 (Trypanosoma brucei brucei, UniProt P11145).
T2 construct: His-tag; made in house; host or cells: Escherichia coli (Tbj2: E. coli BL21 (DE3))
The data set is described as follows: Tbj2-stimulated ATPase activity assay, TbHsp70. The class given is biochemical. The note with it: TbHsp70, 150 μM, Figure 5A. How it is done: (§3) The determination of the ATPase activity of the Hsp70 proteins was performed using the high throughput colorimetric ATPase assay kit (Innova Biosciences, Cambridge, UK). This method enables the quantification of the inorganic phosphate (Pi) released from ATP hydrolysis by an enzyme. Briefly, the molecular chaperones were prepared in ATPase assay buffer (100 mM Tris-HCl, 7.5, 2 mM MgCl2, 50 mM KCl, 0.5 mM DTT) and incubated with ATP (0–2 mM) for 1 h at 37 °C. […] The samples containing Pi hydrolysed from ATP were incubated with the PiColorLock™ solution, which is a malachite green dye solution that in the presence of Pi changes absorbance due to generation of molybdate-phosphate complexes. The absorbance was measured at 595 nm using a Powerwave 96-well plate reader (BioTek Instruments, Inc., Winooski, VT, USA), and absorbance values were converted to phosphate concentrations using a standard curve of absorbance vs. phosphate concentration based on a set of Pi standards provided by the supplier assayed along with the samples. All samples were corrected for spontaneous breakdown of ATP observed in a control experiment in the absence of protein. The trypanosomal and human Hsp70s were used at 0.8 μM, and the J-proteins were used at 0.4 μM. An initial screen of the modulatory effects of the compounds on the ATPase activity of the Hsp70s was conducted using 300 μM of the compounds. Compounds identified to have a modulatory effect on the basal and J-protein-stimulated ATPase activity of Hsp70 were used at varying concentrations. The modulatory effect of the selected compounds on the basal and J-protein stimulated ATPase activity of the T. brucei Hsp70s was represented as fold change with the basal and J-protein stimulated ATPase activity of the Hsp70s taken as 1 respectively. These experiments were conducted on three independently purified batches of proteins, but due to limited availability of the selected compounds, each assay was conducted in duplicate on each batch of protein. In control reactions to evaluate the effect of DMSO on basal and J-protein stimulated ATPase activity of the Hsp70s, the solvent was added to a final concentration of 1% (v/v) in the assay. The assays were performed in duplicate on three independently purified batches of proteins.

The test system of data set [6] is TbHsp70.4 / Tbj2. The experiment in a line: Tbj2-stimulated ATPase activity assay, TbHsp70.4. The class given is biochemical, Trypanosoma brucei. The note with it: TbHsp70.4, 150 μM, Figure 5B. The method, then: as §3
Data set [7] is described as follows: Resazurin-based cytotoxicity assay on a mammalian cell line. More on the design: species or system human. Conditions: human; HeLa cells, 10 μM. The method, then:
as §1

The subject of data set [8] is P. falciparum. More on the design: method as in PMID 21426241. The note with it: read-out: IC50 against P. falciparum; cited from earlier work.
Data set [9] has as its system plasmodial Hsp70s. The arrangement: method as in PMID 24854538. Conditions: cited from earlier work.
Data set [10] concerns human Hsp70. The arrangement: method as in PMID 24854538. Conditions: cited from earlier work.
Data set [11] deals with PfHsp70-1. The arrangement: method as in PMID 21426241. Conditions: cited from earlier work.
In data set [12] the test system is c-Met kinase. The arrangement: method as in PMID 23081922. The note with it: 10 μM; cited from earlier work.
For data set [13], the target named is phosphodiesterase-4D. The arrangement: method as in PMID 24473168. Conditions: read-out: IC50 against phosphodiesterase-4D; cited from earlier work.
The mark [14] stands for this setting: T. b. brucei parasites, stated as bound, read-out: IC50 values.
The mark [15] stands for this setting: Table 1, T. b. brucei parasites cultured in vitro, 48 h, dose-response, read-out: IC50/μM.
[16] abbreviates: Table S1, 48 select compounds, T. b. brucei, 48 h, read-out: IC50/.

Structures are written as SMILES. Where two headings read alike, the source gives them in different places.

T1 sequence (P11145 whole entry): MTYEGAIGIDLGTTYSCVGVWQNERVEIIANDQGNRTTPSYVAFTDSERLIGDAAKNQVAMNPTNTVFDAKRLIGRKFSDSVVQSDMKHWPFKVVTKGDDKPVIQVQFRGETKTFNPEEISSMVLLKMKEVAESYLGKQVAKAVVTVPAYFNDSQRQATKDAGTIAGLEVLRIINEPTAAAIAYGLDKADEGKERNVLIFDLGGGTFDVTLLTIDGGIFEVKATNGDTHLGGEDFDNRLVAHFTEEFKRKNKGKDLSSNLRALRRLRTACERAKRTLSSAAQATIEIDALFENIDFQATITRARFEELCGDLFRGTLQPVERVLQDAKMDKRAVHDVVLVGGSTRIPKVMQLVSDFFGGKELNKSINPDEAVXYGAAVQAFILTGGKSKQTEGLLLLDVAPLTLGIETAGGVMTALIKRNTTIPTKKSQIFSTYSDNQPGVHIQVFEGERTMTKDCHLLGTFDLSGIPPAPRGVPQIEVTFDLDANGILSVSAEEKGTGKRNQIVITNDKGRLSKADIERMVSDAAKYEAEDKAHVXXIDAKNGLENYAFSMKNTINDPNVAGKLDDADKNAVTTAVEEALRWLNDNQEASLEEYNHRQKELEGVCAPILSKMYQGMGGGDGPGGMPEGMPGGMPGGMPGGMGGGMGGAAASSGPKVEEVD
T2 sequence (P11145 whole entry): as above

Consider `CC(C)=CCC/C(C)=C/Cn1cnc(=N)c2ncn(C/C=C(\C)CCC=C(C)C)c21` [Compound 5, 3,9-bis((E)-3,7-dimethylocta-2,6-dien-1-yl)-3,9-dihydro-6H-purin-6-imine], for which the “toxicity to HeLa cells” value in data set [1] was “toxic”.
As for `CC(C)=CCC/C(C)=C/CCC(C)=CCn1cnc2c(cnn2CC=C(C)CC/C=C(\C)CCC=C(C)C)c1=O` [Compound 47, 1,5-Bis((6E)-3,7,11-trimethyldodeca-2,6,10-trien-1-yl)-1,5-dihydro-4H-pyrazolo[3,4-d]pyrimidin-4-one], the IC50 in data set [2] (setting [14]) was less than 7 µM; in [2] (setting [15]), 1.2 µM; in [2] (setting [16]), 1.23 µM. Besides, in data set [3] (TbHsp70, 1 μM), at 1 µM the inhibition was 44%. In data set [4], the “inhibition of basal ATPase activity” value worked out at 66%. Further, the “effect of order of addition (compound vs Tbj2) on inhibition of J-stimulated ATPase activity” value in [5] and in data set [6] was “no significant difference” each time.
For the compound `CC(C)=CCC/C(C)=C/Cn1ccc(=NC=O)n(C/C=C(\C)CCC=C(C)C)c1=O` [Compound 60, N-(-1,3-Bis((E)-3,7-dimethylocta-2,6-dien-1-yl)-2-oxo-2,3-dihydropyrimidin-4(1H)-ylidene)formamide], the IC50 in data set [2] (setting [14]) was less than 7 µM; in [2] (setting [15]), 4.9 µM; in data set [2] (setting [16]) it was 4.89 µM. This compound also displayed an inhibition at 300 µM in data set [3] (TbHsp70, 300 μM, Figure S6) of 39%.
For the compound `CC(C)=CCC/C(C)=C/Cn1ccc(=N)n(C/C=C(\C)CCC=C(C)C)c1=O` [Compound 61, 1,3-bis((E)-3,7-dimethylocta-2,6-dien-1-yl)-4-imino-3,4-dihydropyrimidin-2(1H)-one], the “toxicity to HeLa cells” value in data set [1] is “toxic”.
The same measure, in the same setting: the value for `CC(C)=CCC/C(C)=C/CCC(C)=CCn1ccc(=NC=O)n(CC=C(C)CC/C=C(\C)CCC=C(C)C)c1=O` [Compound 62, N-(-2-Oxo-1,3-bis((6E)-3,7,11-trimethyldodeca-2,6,10-trien-1-yl)-2,3-dihydropyrimidin-4(1H)-ylidene)formamide] was “toxic”.
Consider `CC[C@H]1CN2CCc3cc(OC)c(OC)cc3[C@@H]2C[C@@H]1C[C@H]1NCCc2cc(OC)c(OC)cc21` [Emetine, reference compound], for which the viability at 24 h, 10 µM in data set [7] is 6.03%.
Take `C/C(=C/C(=O)CC(C)C)CCC/C(C)=C/CC/C(C)=C/Cn1cnc2c1c(=O)ncn2C` [malonganenone A]: in data set [8], the IC50 was 0.81 µM. The “effect on steady-state and J-protein stimulated ATPase activity” value in [9] is “inhibited”; in [10], “not that of human Hsp70”.
With `CNC(=O)c1c(N(C)C=O)ncn1C/C=C(\C)CC/C=C(\C)CCC/C(C)=C\C(=O)CC(C)C` [malonganenone B], the “activity against PfHsp70-1” value in data set [11] is “dose-dependent”.
With `C/C(=C/C(=O)CC(C)C)CCC/C(C)=C/CC/C(C)=C/CNC=O` [malonganenone C], the IC50 in [8] was 5.2 µM.
`C/C(=C\CC/C(C)=C/Cn1cnc2c1c(=O)ncn2C)CC/C=C(\C)CC(=O)CC(C)C` [malonganenone D]: in data set [12], the “reduction of c-Met kinase activity” value is recorded as 2 fold.
Turning to `CC(C)=CC(=O)C/C(C)=C/CC/C(C)=C/CC/C(C)=C/Cn1cnc2c1c(=O)ncn2C` [malonganenone L], in data set [13], the IC50 is 8.5 µM.
On to `CNC(=O)c1c(N(C)C=O)ncn1C/C=C(\C)CC/C=C(\C)CCC/C(C)=C\C(=O)C=C(C)C` [malonganenone Q], for which, in data set [13], the IC50 is 20.3 µM.
